In ChEMBL document CHEMBL5715260, “Selectivity Literature for EUbOPEN Chemogenomic Library” (2024):

Tests used:
Parameters in all cases: recommended concentration 1 uM
[1] = biological target: T1, Retinoic acid receptor RXR-alpha (Homo sapiens) (UniProt P19793); assay: Selectivity interaction (Reporter gene assay) EUB0000581a RXRA; settings: reference bexarotene 1 uM, Selectivity number of off-targets 0.0, Selectivity number of targets 1.0, Source Knowledge inhouse
T1 sequence (whole entry): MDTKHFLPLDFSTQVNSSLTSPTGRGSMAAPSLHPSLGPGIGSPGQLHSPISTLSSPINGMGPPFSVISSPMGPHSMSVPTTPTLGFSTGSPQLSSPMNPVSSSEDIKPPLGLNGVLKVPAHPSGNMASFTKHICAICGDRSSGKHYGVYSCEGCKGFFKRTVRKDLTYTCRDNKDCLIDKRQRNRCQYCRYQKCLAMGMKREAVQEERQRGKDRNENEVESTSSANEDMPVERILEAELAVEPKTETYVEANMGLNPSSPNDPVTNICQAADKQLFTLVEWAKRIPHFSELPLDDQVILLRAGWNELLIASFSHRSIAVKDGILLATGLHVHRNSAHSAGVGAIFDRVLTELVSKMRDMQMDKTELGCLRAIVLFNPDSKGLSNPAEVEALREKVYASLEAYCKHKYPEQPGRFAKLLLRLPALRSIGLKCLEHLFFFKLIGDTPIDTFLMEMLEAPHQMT

[2] = biological target: T2, Peroxisome proliferator-activated receptor gamma (Homo sapiens) (UniProt P37231); assay: Selectivity interaction (Reporter gene assay) EUB0000581a PPARG; settings: screened at recom. conc., Selectivity number of off-targets 1.0, Selectivity number of targets 19.0, Source Knowledge inhouse
T2 sequence (whole entry): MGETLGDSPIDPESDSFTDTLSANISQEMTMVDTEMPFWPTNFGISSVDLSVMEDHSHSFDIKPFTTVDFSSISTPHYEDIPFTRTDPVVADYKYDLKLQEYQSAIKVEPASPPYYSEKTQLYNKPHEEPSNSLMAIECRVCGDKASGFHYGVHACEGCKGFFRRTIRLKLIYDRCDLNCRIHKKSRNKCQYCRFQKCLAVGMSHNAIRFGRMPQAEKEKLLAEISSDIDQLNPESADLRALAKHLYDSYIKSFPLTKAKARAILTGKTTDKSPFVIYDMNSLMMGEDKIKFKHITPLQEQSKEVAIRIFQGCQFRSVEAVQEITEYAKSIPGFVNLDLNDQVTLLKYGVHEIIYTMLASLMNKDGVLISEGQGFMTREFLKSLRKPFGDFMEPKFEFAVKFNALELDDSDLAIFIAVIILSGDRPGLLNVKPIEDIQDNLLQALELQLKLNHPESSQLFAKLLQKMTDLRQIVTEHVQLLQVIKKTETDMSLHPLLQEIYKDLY

[3] = biological target: T3, Hepatocyte nuclear factor 4-alpha (Homo sapiens) (UniProt P41235); assay: Selectivity interaction (Reporter gene assay) EUB0000581a HNF4A
T3 sequence (whole entry): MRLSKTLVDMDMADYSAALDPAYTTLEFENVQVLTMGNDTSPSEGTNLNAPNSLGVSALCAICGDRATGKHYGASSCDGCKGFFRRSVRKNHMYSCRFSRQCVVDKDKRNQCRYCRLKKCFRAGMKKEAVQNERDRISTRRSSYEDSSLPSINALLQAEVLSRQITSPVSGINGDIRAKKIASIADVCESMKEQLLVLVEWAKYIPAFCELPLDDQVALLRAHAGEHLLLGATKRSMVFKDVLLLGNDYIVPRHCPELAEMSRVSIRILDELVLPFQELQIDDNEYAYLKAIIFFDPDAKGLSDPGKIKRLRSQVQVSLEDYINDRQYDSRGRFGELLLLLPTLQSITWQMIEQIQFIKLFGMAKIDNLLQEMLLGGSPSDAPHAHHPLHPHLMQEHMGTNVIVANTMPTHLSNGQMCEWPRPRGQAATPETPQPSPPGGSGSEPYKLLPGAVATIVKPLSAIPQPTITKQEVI

[4] = biological target: Steroidogenic factor 1 (Homo sapiens) (UniProt Q13285); assay: Selectivity interaction (Reporter gene assay) EUB0000581a NR5A1
[5] = biological target: T4, Alpha trans-inducing protein (Human alphaherpesvirus 1) (UniProt A0A5J6DW59); assay: Selectivity interaction (Reporter gene assay) EUB0000581a UL48
[6] = biological target: Nuclear receptor subfamily 2 group E member 1 (Homo sapiens) (UniProt Q9Y466); assay: Selectivity interaction (Reporter gene assay) EUB0000581a NR2E1
[7] = biological target: T5, Nuclear receptor subfamily 2 group C member 1 (Homo sapiens) (UniProt P13056); assay: Selectivity interaction (Reporter gene assay) EUB0000581a NR2C1
T5 sequence (whole entry): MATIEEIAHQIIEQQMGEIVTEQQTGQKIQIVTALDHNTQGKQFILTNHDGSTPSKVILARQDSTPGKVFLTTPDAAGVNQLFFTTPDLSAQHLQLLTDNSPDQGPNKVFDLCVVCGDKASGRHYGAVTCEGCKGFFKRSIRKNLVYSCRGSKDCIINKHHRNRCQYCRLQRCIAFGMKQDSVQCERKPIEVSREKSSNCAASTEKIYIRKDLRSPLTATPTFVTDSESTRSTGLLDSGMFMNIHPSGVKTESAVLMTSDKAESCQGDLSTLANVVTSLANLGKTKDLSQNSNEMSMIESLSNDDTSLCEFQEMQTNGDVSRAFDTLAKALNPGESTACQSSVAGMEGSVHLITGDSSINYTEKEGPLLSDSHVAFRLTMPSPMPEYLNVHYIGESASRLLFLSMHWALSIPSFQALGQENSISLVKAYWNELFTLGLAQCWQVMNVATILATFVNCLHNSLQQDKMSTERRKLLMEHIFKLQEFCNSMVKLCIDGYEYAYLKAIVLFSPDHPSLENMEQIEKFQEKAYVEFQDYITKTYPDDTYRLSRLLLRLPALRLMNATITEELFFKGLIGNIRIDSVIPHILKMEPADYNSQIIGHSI

[8] = biological target: Nuclear receptor subfamily 4immunitygroup A member 1 (Homo sapiens) (UniProt P22736); assay: Selectivity interaction (Reporter gene assay) EUB0000581a NR4A1
[9] = biological target: Nuclear receptor subfamily 2 group E member 1 (Homo sapiens) (UniProt Q9Y466); assay: Selectivity interaction (Reporter gene assay) EUB0000571a NR2E1
[10] = biological target: T4, Alpha trans-inducing protein (Human alphaherpesvirus 1); assay: Selectivity interaction (Reporter gene assay) EUB0000571a UL48
[11] = biological target: Steroidogenic factor 1 (Homo sapiens) (UniProt Q13285); assay: Selectivity interaction (Reporter gene assay) EUB0000571a NR5A1
[12] = biological target: T1, Retinoic acid receptor RXR-alpha (Homo sapiens); assay: Selectivity interaction (Reporter gene assay) EUB0000571a RXRA; settings: reference bexarotene 1 uM, Selectivity number of off-targets 0.0, Selectivity number of targets 1.0, Source Knowledge inhouse
[13] = biological target: T5, Nuclear receptor subfamily 2 group C member 1 (Homo sapiens); assay: Selectivity interaction (Reporter gene assay) EUB0000571a NR2C1
[14] = biological target: T3, Hepatocyte nuclear factor 4-alpha (Homo sapiens); assay: Selectivity interaction (Reporter gene assay) EUB0000571a HNF4A
[15] = biological target: Nuclear receptor subfamily 4immunitygroup A member 1 (Homo sapiens) (UniProt P22736); assay: Selectivity interaction (Reporter gene assay) EUB0000571a NR4A1
[16] = biological target: T3, Hepatocyte nuclear factor 4-alpha (Homo sapiens); assay: Selectivity interaction (Reporter gene assay) EUB0000583a HNF4A
[17] = biological target: Steroidogenic factor 1 (Homo sapiens) (UniProt Q13285); assay: Selectivity interaction (Reporter gene assay) EUB0000583a NR5A1
[18] = biological target: T4, Alpha trans-inducing protein (Human alphaherpesvirus 1); assay: Selectivity interaction (Reporter gene assay) EUB0000583a UL48
[19] = biological target: Nuclear receptor subfamily 4immunitygroup A member 1 (Homo sapiens) (UniProt P22736); assay: Selectivity interaction (Reporter gene assay) EUB0000583a NR4A1
[20] = biological target: T5, Nuclear receptor subfamily 2 group C member 1 (Homo sapiens); assay: Selectivity interaction (Reporter gene assay) EUB0000583a NR2C1
[21] = biological target: T1, Retinoic acid receptor RXR-alpha (Homo sapiens); assay: Selectivity interaction (Reporter gene assay) EUB0000583a RXRA; settings: reference bexarotene 1 uM, Selectivity number of off-targets 0.0, Selectivity number of targets 1.0, Source Knowledge inhouse
[22] = biological target: Nuclear receptor subfamily 2 group E member 1 (Homo sapiens) (UniProt Q9Y466); assay: Selectivity interaction (Reporter gene assay) EUB0000583a NR2E1
[23] = biological target: T5, Nuclear receptor subfamily 2 group C member 1 (Homo sapiens); assay: Selectivity interaction (Reporter gene assay) EUB0000585a NR2C1
[24] = biological target: T3, Hepatocyte nuclear factor 4-alpha (Homo sapiens); assay: Selectivity interaction (Reporter gene assay) EUB0000585a HNF4A
[25] = biological target: Steroidogenic factor 1 (Homo sapiens) (UniProt Q13285); assay: Selectivity interaction (Reporter gene assay) EUB0000585a NR5A1
[26] = biological target: T4, Alpha trans-inducing protein (Human alphaherpesvirus 1); assay: Selectivity interaction (Reporter gene assay) EUB0000585a UL48
[27] = biological target: T1, Retinoic acid receptor RXR-alpha (Homo sapiens); assay: Selectivity interaction (Reporter gene assay) EUB0000585a RXRA; settings: reference bexarotene 1 uM, Selectivity number of off-targets 0.0, Selectivity number of targets 1.0, Source Knowledge inhouse
[28] = biological target: Nuclear receptor subfamily 4immunitygroup A member 1 (Homo sapiens) (UniProt P22736); assay: Selectivity interaction (Reporter gene assay) EUB0000585a NR4A1
[29] = biological target: Nuclear receptor subfamily 2 group E member 1 (Homo sapiens) (UniProt Q9Y466); assay: Selectivity interaction (Reporter gene assay) EUB0000585a NR2E1
[30] = biological target: Nuclear receptor subfamily 4immunitygroup A member 1 (Homo sapiens) (UniProt P22736); assay: Selectivity interaction (Reporter gene assay) EUB0000573a NR4A1
[31] = biological target: T5, Nuclear receptor subfamily 2 group C member 1 (Homo sapiens); assay: Selectivity interaction (Reporter gene assay) EUB0000573a NR2C1
[32] = biological target: T3, Hepatocyte nuclear factor 4-alpha (Homo sapiens); assay: Selectivity interaction (Reporter gene assay) EUB0000573a HNF4A
[33] = biological target: T1, Retinoic acid receptor RXR-alpha (Homo sapiens); assay: Selectivity interaction (Reporter gene assay) EUB0000573a RXRA; settings: reference bexarotene 1 uM, Selectivity number of off-targets 0.0, Selectivity number of targets 1.0, Source Knowledge inhouse
[34] = biological target: T4, Alpha trans-inducing protein (Human alphaherpesvirus 1); assay: Selectivity interaction (Reporter gene assay) EUB0000573a UL48
[35] = biological target: Steroidogenic factor 1 (Homo sapiens) (UniProt Q13285); assay: Selectivity interaction (Reporter gene assay) EUB0000573a NR5A1
[36] = biological target: Nuclear receptor subfamily 2 group E member 1 (Homo sapiens) (UniProt Q9Y466); assay: Selectivity interaction (Reporter gene assay) EUB0000573a NR2E1

T4 sequence (A0A5J6DW59 as listed by the source): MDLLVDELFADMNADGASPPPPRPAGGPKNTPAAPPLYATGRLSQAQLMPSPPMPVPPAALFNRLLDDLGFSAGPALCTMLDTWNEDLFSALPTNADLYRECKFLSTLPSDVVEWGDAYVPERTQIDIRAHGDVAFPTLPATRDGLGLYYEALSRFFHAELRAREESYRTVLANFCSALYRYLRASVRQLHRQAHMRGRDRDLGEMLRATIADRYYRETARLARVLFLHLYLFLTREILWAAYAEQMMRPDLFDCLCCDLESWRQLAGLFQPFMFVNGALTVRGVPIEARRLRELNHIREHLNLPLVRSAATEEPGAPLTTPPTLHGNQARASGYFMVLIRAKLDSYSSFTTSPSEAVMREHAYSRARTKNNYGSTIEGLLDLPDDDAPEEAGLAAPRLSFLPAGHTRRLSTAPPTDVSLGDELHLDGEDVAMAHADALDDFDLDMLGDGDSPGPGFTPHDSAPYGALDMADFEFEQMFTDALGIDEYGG
Nuclear receptor subfamily 2 group E member 1 (Homo sapiens), sequence (Q9Y466 whole entry): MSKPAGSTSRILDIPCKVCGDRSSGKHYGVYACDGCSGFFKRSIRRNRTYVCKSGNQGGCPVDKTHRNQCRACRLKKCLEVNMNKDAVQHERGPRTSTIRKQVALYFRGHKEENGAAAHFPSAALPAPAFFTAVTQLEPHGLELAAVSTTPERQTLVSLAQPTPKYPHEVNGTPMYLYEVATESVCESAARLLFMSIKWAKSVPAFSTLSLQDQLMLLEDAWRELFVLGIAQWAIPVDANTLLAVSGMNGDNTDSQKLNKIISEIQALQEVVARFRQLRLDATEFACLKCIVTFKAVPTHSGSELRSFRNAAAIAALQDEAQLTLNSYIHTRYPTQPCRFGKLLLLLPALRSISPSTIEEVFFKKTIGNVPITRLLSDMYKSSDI
Nuclear receptor subfamily 4immunitygroup A member 1 (Homo sapiens), sequence (P22736 whole entry): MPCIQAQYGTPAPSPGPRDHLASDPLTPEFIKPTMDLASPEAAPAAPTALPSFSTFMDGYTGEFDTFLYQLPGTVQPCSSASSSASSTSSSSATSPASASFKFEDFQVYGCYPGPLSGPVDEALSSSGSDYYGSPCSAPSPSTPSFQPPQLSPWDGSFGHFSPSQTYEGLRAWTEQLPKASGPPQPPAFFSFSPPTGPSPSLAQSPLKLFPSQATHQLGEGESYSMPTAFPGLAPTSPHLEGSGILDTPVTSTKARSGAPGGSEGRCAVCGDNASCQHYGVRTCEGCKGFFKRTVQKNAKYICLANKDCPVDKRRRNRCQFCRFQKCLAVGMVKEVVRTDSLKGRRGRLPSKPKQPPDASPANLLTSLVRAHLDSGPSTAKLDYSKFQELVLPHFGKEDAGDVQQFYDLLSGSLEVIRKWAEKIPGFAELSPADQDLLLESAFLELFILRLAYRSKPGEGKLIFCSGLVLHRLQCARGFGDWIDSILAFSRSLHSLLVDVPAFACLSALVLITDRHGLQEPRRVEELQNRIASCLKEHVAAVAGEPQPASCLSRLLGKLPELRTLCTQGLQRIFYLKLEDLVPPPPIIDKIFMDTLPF
Steroidogenic factor 1 (Homo sapiens), sequence (Q13285 whole entry): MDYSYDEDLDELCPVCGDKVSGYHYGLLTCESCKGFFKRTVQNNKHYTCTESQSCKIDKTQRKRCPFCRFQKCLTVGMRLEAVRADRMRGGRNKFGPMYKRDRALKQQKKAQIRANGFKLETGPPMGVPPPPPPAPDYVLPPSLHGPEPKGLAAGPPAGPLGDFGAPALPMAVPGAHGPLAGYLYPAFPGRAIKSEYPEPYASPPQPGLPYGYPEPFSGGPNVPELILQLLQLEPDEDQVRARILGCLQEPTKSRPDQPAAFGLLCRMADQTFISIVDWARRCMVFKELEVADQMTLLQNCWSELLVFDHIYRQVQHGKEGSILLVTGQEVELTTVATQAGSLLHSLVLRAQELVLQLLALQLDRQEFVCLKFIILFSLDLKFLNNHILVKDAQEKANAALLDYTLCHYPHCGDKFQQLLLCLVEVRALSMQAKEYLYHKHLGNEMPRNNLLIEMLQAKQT

CC(C)c1ccc(CC(=O)N2CCC[C@@H](c3cccc(OC(C)(C)C(=O)O)c3)C2)cc1
Relative activation [1]: 0.86% | Fold activation [2]: 3.39 | Fold activation [3]: 1.11 | Fold activation [4]: 1.08 | P-value [5]: 0.0017 | Remaining activity [6]: 0.846 | Fold activation [7]: 1.13 | Fold activation [8]: 1.08

COC(=O)C(Cc1ccc(OCCn2c(=O)sc3cc(C(=O)c4ccccc4)ccc32)cc1)C(=O)OC
Remaining activity [9]: 0.849 | P-value [10]: 0.0005 | Fold activation [11]: 1.22 | Relative activation [12]: 0.67% | Fold activation [13]: 1.38 | Fold activation [14]: 1.06 | Remaining activity [15]: 0.966

C=C1/C(=C\C=C2/CCC[C@]3(C)[C@@H]([C@H](C)/C=C/[C@H](C)C(C)C)CC[C@@H]23)C[C@@H](O)C[C@@H]1O
Remaining activity [16]: 0.993 | Fold activation [17]: 1.08 | P-value [18]: 0.000557 | Remaining activity [19]: 0.837 | Fold activation [20]: 1.19 | Relative activation [21]: 0.635% | Remaining activity [22]: 0.883

Cc1cc(OCC(=O)O)cc(C)c1Cc1ccc(O)c(C(C)C)c1
Remaining activity [23]: 0.638 | Remaining activity [24]: 0.623 | Remaining activity [25]: 0.672 | P-value [26]: 0.00063 | Relative activation [27]: 0.666% | Remaining activity [28]: 0.496 | Remaining activity [29]: 0.57

CC(C)OC(=O)C1=CN(C(=O)c2ccc(F)c(F)c2)CC(C)(C)c2c1[nH]c1ccccc21
Fold activation [30]: 1.03 | Fold activation [31]: 1.3 | Fold activation [32]: 1.02 | Relative activation [33]: 0.671% | P-value [34]: 1.36e-05 | Fold activation [35]: 1.12 | Fold activation [36]: 1.46
